Key:
Assay type in all cases: in vivo
[1] = test system: Tetranychus urticae (two-spotted spider mite); experiment: Tetranychus urticae bean leaf disc spray test; conditions: foliar, 192 h, bean leaf discs sprayed at 200 ppm, mixed ages, egg, larval and adult mortality 8 days later
Text: Bean leaf discs on agar in 24-well microtiter plates were sprayed with test solutions at an application rate of 200 ppm. After drying, the leaf discs are infested with mite populations of mixed ages. 8 days later, discs are checked for egg mortality, larval mortality, and adult mortality. […]

[2] = test system: Diabrotica balteata (corn root worm); experiment: Diabrotica balteata L2 larvae test on artificial diet; conditions: 120 h, 200 ppm (concentration in well 18 ppm), 5 days, larval mortality and growth regulation
Procedure: (§1) A 24-well microtiter plate (MTP) with artificial diet was treated with test solutions at an application rate of 200 ppm (concentration in well 18 ppm) by pipetting. After drying, the MTPs were infested with L2 larvae (6-10 per well). After an incubation period of 5 days, samples were checked for larval mortality and growth regulation.
as §1, with “12.5” for “200”, “MTP's” for “MTPs”

[3] = test system: Heliothis virescens (tobacco budworm); experiment: Heliothis virescens egg test on artificial diet; conditions: 96 h, 200 ppm (concentration in well 18 ppm), eggs 0-24 h old, 4 days, egg mortality, larval mortality, growth regulation
Procedure: Eggs (0-24 h old) were placed in 24-well microtiter plate on artificial diet and treated with test solutions at an application rate of 200 ppm (concentration in well 18 ppm) by pipetting. After an incubation period of 4 days, samples were checked for egg mortality, larval mortality, and growth regulation.

[4] = test system: Spodoptera littoralis (Egyptian cotton leafworm); experiment: Spodoptera littoralis cotton leaf disc spray test; conditions: foliar, 72 h, cotton leaf discs sprayed at 200 ppm, 5 L1 larvae, mortality, feeding behavior, growth regulation 3 days after treatment
Text: Cotton leaf discs were placed on agar in a 24-well microtiter plate and sprayed with test solutions at an application rate of 200 ppm. After drying, the leaf discs were infested with 5 L1 larvae. The samples were checked for mortality, feeding behavior, and growth regulation 3 days after treatment (DAT).

[5] = test system: Plutella xylostella (diamond back moth); experiment: Plutella xylostella L2 larvae test on artificial diet; conditions: 144 h, 200 ppm (concentration in well 18 ppm), 6 days, larval mortality and growth regulation
Procedure: as §1, with “24-well” for “A 24-well”, “(7-12” for “(6-10”, “6” for “5”

[6] = test system: Thrips tabaci (onion thrips); experiment: Thrips tabaci sunflower leaf disc spray test; conditions: foliar, 168 h, sunflower leaf discs sprayed at 200 ppm, mixed ages, mortality after 7 days
Procedure: Sunflower leaf discs were placed on agar in a 24-well microtiter plate and sprayed with test solutions at an application rate of 200 ppm. […] After drying, the leaf discs were infested with a thrip population of mixed ages. After an incubation period of 7 days, samples were checked for mortality.

Measured: pest or weed control at 200 ppm

Cc1cc(C2=CC(c3cc(Cl)cc(Cl)c3)(C(F)(F)F)OC2)ccc1C(=O)NCC(F)(F)F (centres unmarked) [Compound A3]
not listed: [6]
≥ 80%: all other assays above

CCNC(=O)c1ccc(C2=CC(c3cc(Cl)cc(Cl)c3)(C(F)(F)F)OC2)cc1C (centres unmarked) [Compound A4]
≥ 80%: all assays above

Cc1cc(C2=CC(c3cc(Cl)cc(Cl)c3)(C(F)(F)F)OC2)ccc1C(=O)NCc1cn(C)cn1 (centres unmarked) [Compound A17]
≥ 80%: all assays above

Cc1cc(C2=CC(c3cc(Cl)cc(Cl)c3)(C(F)(F)F)OC2)ccc1C(=O)NCCCBr (centres unmarked) [Compound A19]
≥ 80%: all assays above

Cc1cc(C2=CC(c3cc(Cl)cc(Cl)c3)(C(F)(F)F)OC2)ccc1C(=O)NCCC(F)(F)F (centres unmarked) [Compound A20]
≥ 80%: all assays above

CCC(C)NC(=O)c1ccc(C2=CC(c3cc(Cl)cc(Cl)c3)(C(F)(F)F)OC2)cc1C (centres unmarked) [Compound A27]
≥ 80%: all assays above

C#CC1(NC(=O)c2ccc(C3=CC(c4cc(Cl)cc(Cl)c4)(C(F)(F)F)OC3)cc2C)CCCCC1 (centres unmarked) [Compound A30]
≥ 80%: [1] | [2] | [6] | [5]

Cc1cc(C2=CC(c3cc(Cl)cc(Cl)c3)(C(F)(F)F)OC2)ccc1C(=O)NCCC1OCCO1 (centres unmarked) [Compound A31]
not listed: [3]
≥ 80%: all other assays above

Cc1cc(C2=CC(c3cc(Cl)cc(Cl)c3)(C(F)(F)F)OC2)ccc1C(=O)NCc1cccnc1 (centres unmarked) [Compound A35]
not listed: [6]
≥ 80%: all other assays above

CSCCNC(=O)c1ccc(C2=CC(c3cc(Cl)cc(Cl)c3)(C(F)(F)F)OC2)cc1C (centres unmarked) [Compound A49]
not listed: [6]
≥ 80%: all other assays above

Cc1cc(C2=CC(c3cc(Cl)cc(Cl)c3)(C(F)(F)F)OC2)ccc1C(=O)Nc1cccc2ncccc12 (centres unmarked) [Compound A57]
not listed: [6]
≥ 80%: all other assays above

Cc1cc(C2=CC(c3cc(Cl)cc(Cl)c3)(C(F)(F)F)OC2)ccc1C(=O)Nc1cccc(F)c1 (centres unmarked) [Compound A59]
≥ 80%: [6] | [3] | [4] | [5]

Cc1cc(C2=CC(c3cc(Cl)cc(Cl)c3)(C(F)(F)F)OC2)ccc1C(=O)NCC1CCS1 (centres unmarked) [Compound A80]
not listed: [6]
≥ 80%: all other assays above

Cc1cc(C2=CC(c3cc(Cl)cc(Cl)c3)(C(F)(F)F)OC2)ccc1C(=O)NCC1CCS1(=O)=O (centres unmarked) [Compound A81]
not listed: [6]
≥ 80%: all other assays above

CCNC(=O)c1ccc(C2=CC(c3cc(Cl)cc(Cl)c3)(C(F)(F)F)OC2)nc1C (centres unmarked) [Compound C2]
not listed: [3]
≥ 80%: all other assays above

COCC(C)NC(=O)c1ccc(C2=CC(c3cc(Cl)cc(Cl)c3)(C(F)(F)F)OC2)nc1C (centres unmarked) [Compound C4]
≥ 80%: [6] | [4]

CCC(C)NC(=O)c1ccc(C2=CC(c3cc(Cl)cc(Cl)c3)(C(F)(F)F)OC2)nc1C (centres unmarked) [Compound C7]
not listed: [1]
≥ 80%: all other assays above

Cc1nc(C2=CC(c3cc(Cl)cc(Cl)c3)(C(F)(F)F)OC2)ccc1C(=O)NCc1ccc(Cl)nc1 (centres unmarked) [Compound C14]
not listed: [6]
≥ 80%: all other assays above

Cc1nc(C2=CC(c3cc(Cl)cc(Cl)c3)(C(F)(F)F)OC2)ccc1C(=O)NC1(C)CSC1 (centres unmarked) [Compound C17]
not listed: [3]
≥ 80%: all other assays above

Cc1nc(C2=CC(c3cc(Cl)cc(Cl)c3)(C(F)(F)F)OC2)ccc1C(=O)NC1CSC1 (centres unmarked) [Compound C19]
not listed: [3]
≥ 80%: all other assays above

Cc1nc(C2=CC(c3cc(Cl)cc(Cl)c3)(C(F)(F)F)OC2)ccc1C(=O)NC1CC2CCC1C2 (centres unmarked) [Compound C20]
not listed: [1]
≥ 80%: all other assays above

Cc1nc(C2=CC(c3cc(Cl)cc(Cl)c3)(C(F)(F)F)OC2)ccc1C(=O)NC1CCC1 (centres unmarked) [Compound C21]
not listed: [1]
≥ 80%: all other assays above

Cc1cc(C2=CC(c3cc(Cl)cc(Cl)c3)(C(F)(F)F)OC2)ccc1C(=O)NC1CC2CCC1C2 (centres unmarked) [Compound D22]
≥ 80%: [2] | [6] | [5]

Cc1cc(C2=CC(c3cc(Cl)cc(Cl)c3)(C(F)(F)F)OC2=O)ccc1C(=O)NCC(=O)NCC(F)(F)F (centres unmarked) [Compound E5]
not listed: [6]
≥ 80%: all other assays above

Cc1cc(C2=CC(c3cc(Cl)cc(Cl)c3)(C(F)(F)F)OC2=O)ccc1C(=O)NC1CCC1 (centres unmarked) [Compound E18]
≥ 80%: [6]

— patent US20140343049A1, “DIHYDROFURAN DERIVATIVES AS INSECTICIDAL COMPOUNDS” (SYNGENTA PARTICIPATIONS AG, priority 2011, published 2014)
